Measurements published in US11236367B2, “Fatty acid decarboxylase and its uses” (COMMISSARIAT A L'ENERGIE ATOMIQUE ET AUX ENERGIES …, priority 2016, dated 2022).

Legend:
Assay type in all cases: biochemical, Chlorella variabilis NC64A
[1] = target: T1, alkane synthase activity of Chlorella homogenate (Chlorella variabilis, UniProt A0A248QE08); assay: Alkane synthase activity assay on Chlorella homogenate and purification fractions (SPME, GC-MS); conditions: for effect of added co-factor on alkane synthase activity: added in different combinations to the solubilized microsomal fraction
T1 construct: Reaction mixtures contained 500 μL of each purification fraction; endogenous in cells; host or cells: Chlorella cells (homogenate, solubilized microsomal fraction, chromatography fractions)
Procedure: Enzymatic assays were performed in transparent glass vials sealed using caps with septum. Reaction mixtures contained 500 μL of each purification fraction, 200 μM of perdeuterated palmitic acid (10 mM stock solution in ethanol) and 45 nmol hexadecane as internal standard (4.5 mM stock solution in chloroform). Vials were agitated at 120 rpm overnight at 25° C. under a white light (intensity 120 μmol photons m^−2s^−1). Reaction was stopped by the addition of 10 μL NaOH 10 M through the septum using a syringe. Hydrocarbons produced were analyzed by incubating in the headspace of the vial a solid phase microextraction (SPME) fiber (DVB PDMS fused silica, 65 μm double-polar, Supelco) mounted on a holder. After 15 min incubation at room temperature the SPME fiber was immediately inserted into the injector of the GC-MS and desorbed at 250° C. GC-MS analysis was carried out as described below.

[2] = target: T2, Chlorella GMC oxidoreductase (Chlorella variabilis, UniProt A0A248QE08); assay: 13CO2 release from 1-13C-palmitate with the purified enzyme (membrane inlet mass spectrometry); conditions: palmitic acid labelled with 13C on the carboxylic group
T2 construct: 6 His-tagged thioredoxin (N, cleaved yes); TEV protease-cleavage site (N, cleaved yes); made in house; host or cells: E. coli BL21-CodonPlus (DE3)-RIL
Procedure: All assays were performed in transparent glass vials sealed using caps with septum. Optimum pH was determined using a Teorell Stenhagen universal buffer (33 mM citric acid monohydrate, 33 mM phosphoric acid, 100 mM NaOH, 16.7 mM of boric acid, pH 8.5 adjusted with 1N HCl). Other assays were performed in 100 mM Tris HCl pH 8.5, 100 mM NaCl. Reaction mixtures (500 μL) typically contained 160 nM purified enzyme (stock ? solution 2.5 mg ml^−1) and 400 μM substrate (stock solution 10 mM in ethanol). In some assays, a lipase was used with the alkane synthase. In this case, substrate was a triacylglycerol. Generally, samples were shaken at 200 rpm during 15 min under LED-made white light at 2000 μmol ? photons m^−2s^−1. After the incubations, samples were heated at 95° C. during 15 min to stop the enzymatic reaction. Samples were cooled down and internal standard (hexadecane) was added (45 nmol from a 4.5 mM stock solution in chloroform). NaOH was then added to the reaction mixture (10 μL from a stock solution of 10 M) and samples were vortexed for 5 min. […] The hexane phase was collected by centrifugation and analyzed by GC-MS-FID. […] In FIG. 11 activity on 1-^13C-palmitate was monitored by release of ^13CO2 using membrane inlet mass spectrometry. […]
Online measurements of ^12CO2 (m/z=44) and ^13CO2 (m/z=45) were monitored using mass spectrometry (model Prima B, Thermo Scientific). […]

[3] = target: T2, Chlorella GMC oxidoreductase; assay: Enzymatic assay with purified recombinant enzyme (GC-MS of products); conditions: for conversion of substrate by the enzyme (product formed): purified recombinant enzyme, white light
Procedure: All assays were performed in transparent glass vials sealed using caps with septum. Optimum pH was determined using a Teorell Stenhagen universal buffer (33 mM citric acid monohydrate, 33 mM phosphoric acid, 100 mM NaOH, 16.7 mM of boric acid, pH 8.5 adjusted with 1N HCl). Other assays were performed in 100 mM Tris HCl pH 8.5, 100 mM NaCl. Reaction mixtures (500 μL) typically contained 160 nM purified enzyme (stock ? solution 2.5 mg ml^−1) and 400 μM substrate (stock solution 10 mM in ethanol). In some assays, a lipase was used with the alkane synthase. In this case, substrate was a triacylglycerol. Generally, samples were shaken at 200 rpm during 15 min under LED-made white light at 2000 μmol ? photons m^−2s^−1. After the incubations, samples were heated at 95° C. during 15 min to stop the enzymatic reaction. Samples were cooled down and internal standard (hexadecane) was added (45 nmol from a 4.5 mM stock solution in chloroform). NaOH was then added to the reaction mixture (10 μL from a stock solution of 10 M) and samples were vortexed for 5 min. Then 250 μL of hexane was added and samples were vortexed for 5 min to extract alkanes and alkenes. The hexane phase was collected by centrifugation and analyzed by GC-MS-FID. The analysis was done by direct injection of 100 μl of the headspace into a GC-MS. In FIG. 11 activity on 1-^13C-palmitate was monitored by release of ^13CO2 using membrane inlet mass spectrometry. Illuminations were provided by CBT-120 LEDs (Luminous, Billerica) either blue (peak at 460 nm, 25 nm FWHM), or red (peak at 635 nm, 15 nm FWHM) at an intensity of 850 μmol photons m^−2 s^−1.

T1 sequence (A0A248QE08 61-654 limits assumed): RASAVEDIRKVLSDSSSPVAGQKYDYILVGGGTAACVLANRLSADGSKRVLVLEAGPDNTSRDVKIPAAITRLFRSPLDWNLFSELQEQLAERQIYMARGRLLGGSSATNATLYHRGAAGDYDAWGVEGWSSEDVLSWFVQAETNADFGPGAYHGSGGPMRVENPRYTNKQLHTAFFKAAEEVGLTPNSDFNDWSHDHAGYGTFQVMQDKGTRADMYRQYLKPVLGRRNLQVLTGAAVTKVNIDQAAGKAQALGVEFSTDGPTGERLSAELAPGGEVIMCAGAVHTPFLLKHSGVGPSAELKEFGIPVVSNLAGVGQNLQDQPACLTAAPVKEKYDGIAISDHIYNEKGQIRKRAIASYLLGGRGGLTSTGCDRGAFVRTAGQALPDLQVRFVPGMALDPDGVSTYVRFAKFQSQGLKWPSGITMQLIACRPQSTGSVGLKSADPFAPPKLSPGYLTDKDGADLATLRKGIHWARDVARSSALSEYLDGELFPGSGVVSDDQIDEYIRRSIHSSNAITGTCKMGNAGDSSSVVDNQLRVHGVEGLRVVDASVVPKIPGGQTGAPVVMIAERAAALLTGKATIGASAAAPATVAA
T2 sequence (A0A248QE08 62-654): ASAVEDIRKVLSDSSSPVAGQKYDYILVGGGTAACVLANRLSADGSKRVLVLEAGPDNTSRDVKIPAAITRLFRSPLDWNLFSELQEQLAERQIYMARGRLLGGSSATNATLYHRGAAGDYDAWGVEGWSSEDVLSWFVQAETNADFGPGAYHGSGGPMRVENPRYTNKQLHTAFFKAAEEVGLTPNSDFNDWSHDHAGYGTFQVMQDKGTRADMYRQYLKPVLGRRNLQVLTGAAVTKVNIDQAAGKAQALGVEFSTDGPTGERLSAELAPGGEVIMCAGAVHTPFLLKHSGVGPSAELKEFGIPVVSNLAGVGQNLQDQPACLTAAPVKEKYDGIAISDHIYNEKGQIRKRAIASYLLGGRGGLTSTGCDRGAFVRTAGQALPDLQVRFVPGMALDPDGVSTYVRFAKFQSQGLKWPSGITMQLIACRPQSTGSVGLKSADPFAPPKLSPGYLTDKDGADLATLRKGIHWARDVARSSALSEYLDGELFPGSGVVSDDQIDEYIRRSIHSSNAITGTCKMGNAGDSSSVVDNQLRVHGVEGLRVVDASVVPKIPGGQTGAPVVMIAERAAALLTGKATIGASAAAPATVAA

SMILES	effect of added co-factor on alkane synthase activity [1]	conversion of substrate by the enzyme (product formed) [3]	other results
Nc1ncnc2c1ncn2[C@@H]1O[C@H](COP(=O)(O)OP(=O)(O)OP(=O)(O)O)[C@@H](O)[C@H]1O [ATP]	None of them were found to increase the activity		
NC(=O)C1=CN([C@@H]2O[C@H](COP(=O)(O)OP(=O)(O)OC[C@H]3O[C@@H](n4cnc5c(N)ncnc54)[C@H](OP(=O)(O)O)[C@@H]3O)[C@@H](O)[C@H]2O)C=CC1 [NADPH]	None of them were found to increase the activity		
CCCCCCCCCCCCCCC[13C](=O)O [1-^13C-palmitate, reference compound]			co-product released from labelled substrate [2]: production of ^13CO2
CC(C)CCCC(C)CCCC(C)CCCC(C)CC(=O)O (stereo not drawn) [Phytanic acid, 3,7,11,15-tetramethylhexadecanoic acid]		converted into branched alkanes	
NC(=O)c1ccc[n+]([C@@H]2O[C@H](COP(=O)([O-])OP(=O)(O)OC[C@H]3O[C@@H](n4cnc5c(N)ncnc54)[C@H](OP(=O)(O)O)[C@@H]3O)[C@@H](O)[C@H]2O)c1 [NADP]	None of them were found to increase the activity		
CCCCCCCCCCCCCCCCC(=O)OCC(COC(=O)CCCCCCCCCCCCCCCC)OC(=O)CCCCCCCCCCCCCCCC [TAGs, glyceryl triheptadecanoate]		cannot use TAGs (triacylglycerol) directly as substrate	conversion of substrate by the enzyme in presence of a TAG lipase ([3]; purified enzyme plus TAG lipase): production of hydrocarbons is observed
[2H]C([2H])([2H])C([2H])([2H])C([2H])([2H])C([2H])([2H])C([2H])([2H])C([2H])([2H])C([2H])([2H])C([2H])([2H])C([2H])([2H])C([2H])([2H])C([2H])([2H])C([2H])([2H])C([2H])([2H])C([2H])([2H])C([2H])([2H])C(=O)O [Deuterated palmitic acid, perdeuterated (D31) palmitic acid]			formation of labelled pentadecane from labelled substrate ([1]; Chlorella cell homogenate, overnight incubation in sealed vial): labelled pentadecane could be detected
O=C(O)CCCCCCCCCCCCCCCO [16-OH palmitic acid]		production of pentadecanol	
